From patent publication EP0315434A2, “Pyridoxal hydrazone derivatives their production and use and pharmaceutical compositions containing the same” (YISSUM RESEARCH DEVELOPMENT COMPANY OF THE HEBREW …, priority 1987, dated 1989)
Like-named read-outs stand apart in the source and are kept apart here.

Columns and labels:
[1] = test system: chloroquine-resistant strain of P. falciparum (FCR-3)
Protocol: Cultures of a chloroquine-resistant strain of P. falciparum (FCR-3), cultivated in human erythrocytes (a technique widely used at the Kuvin Centre, Hebrew University Hadassah Medical School), were suspended in solutions containing chelators and then cultured for 3 days. Growth of parasites was determined by either slide counts or by incorporation of ³H-hypoxanthine. The parasite growth was monitored by microscopic slide counts. […]

[2] = Iron chelation in H₂O (spectrophotometric, apparent K), ferrous ions; assay type: physicochemical
[3] = rats
[4] = Fate of ⁵⁹Fe tracer incubated with chelator and injected into normal rats (radioiron distribution and excretion); assay type: in vivo; conditions: for Radioiron Distribution in % Feces / Radioiron Distribution in % Total excretion / Radioiron Distribution in % Urine / Radioiron Distribution in % Blood / Radioiron Distribution in % Liver / Radioiron Distribution in % Spleen: 10 mg chelator with ⁵⁹Fe, subcutaneous, normal rats; for Radioiron Distribution in % Feces / Radioiron Distribution in % Total excretion / Radioiron Distribution in % Urine: cumulative within 4 days; for Radioiron Distribution in % Blood / Radioiron Distribution in % Liver / Radioiron Distribution in % Spleen: within 4 days; for TOTAL EXCRETION OF RADIO-IRON IN RATS %: as in Table 1
Protocol: Table 1 describes the fate of ⁵⁹Fe tracer reincubated […] with 10 mg of some of the above iron chelators and then injected subcutaneously to groups of 4 normal rats. Numbers represent mean cumulative radioiron excretion within 4 days of injection. For comparison, spontaneous excretion of radioiron and the excretion of desferrioxamine (DF) bound radioiron are also given. […]
Spleen and kidney were counted as whole organs.
(§1) The excretion of radioiron following ⁵⁹Fe labelling was measured in animals confined to solitary metabolic cages with stainless steel grid bottoms, and stool and urine were collected separately.

[5] = Mobilization of iron from hepatic parenchymal stores in hypertransfused rats labelled with ⁵⁹Fe-ferritin; assay type: in vivo
Protocol: In each case, 40 mg of each compound was administered per animal in a single subcutaneous injection.
In vivo studies of chelating efficiency were performed in two models: (a) normal rats injected i.p. with 10 mg of either desferrioxamine B (DF), PIH of the prior art, PPH of Example 4 or PPHE from Example 5 labelled in vitro with ⁵⁹Fe; and (b) hypertransfused rats receiving twice 4 ml/100gm packed RBC intravenously 5 and 3 days prior to study (hematocrit 68%) and labelled with ⁵⁹Fe-ferritin injected i.v. 24h prior to iron chelating therapy as described previously. Drugs to be tested in the ⁵⁹Fe-ferritin model were given either by i.p. injection or by gastric tube at a dose of 40 mg per animal. Radioiron excretion and organ distribution were determined after 4 days
The radioactivity of spleen, weighed portions of the liver, and 1 ml samples of blood were determined in an automatic well type scintillation counter (Packard Autogamma Model 5360 Scintillation spectrometer). Spleen and kidney were counted as whole organs.
as §1, with “Whole body counts were performed in a small animal counter (Packard Model 446 Armac) scintillation detector. The” for “The”

[6] = target: T1, Ribonucleoside Diphosphate Reductase (RdR) (Homo sapiens, UniProt P31350); assay: Inhibition of ribonucleotide diphosphate reductase; assay type: biochemical
T1 sequence (P31350 1-389): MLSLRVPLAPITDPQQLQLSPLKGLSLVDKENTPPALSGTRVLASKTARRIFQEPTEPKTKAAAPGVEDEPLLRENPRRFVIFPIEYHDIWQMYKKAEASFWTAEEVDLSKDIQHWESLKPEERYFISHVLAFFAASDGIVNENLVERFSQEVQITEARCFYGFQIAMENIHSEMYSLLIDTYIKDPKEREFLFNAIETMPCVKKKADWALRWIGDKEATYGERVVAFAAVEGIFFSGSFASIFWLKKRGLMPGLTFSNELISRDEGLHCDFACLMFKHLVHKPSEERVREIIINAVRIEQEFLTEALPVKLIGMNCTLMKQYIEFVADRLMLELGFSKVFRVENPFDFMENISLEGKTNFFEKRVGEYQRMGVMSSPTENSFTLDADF

Lewis lung carcinoma = assay: Inhibition of Lewis lung carcinoma (primary tumor and metastases); assay type: in vivo; conditions: dose 1.25 mg/kg
From the text: It becomes possible also to look at the ability of one of the compounds (Ex. 1) to inhibit the growth of Lewis lung carcinoma. With a view to possible mechanisms we employed the well-established anti-cancer antibiotics (a) bleomycin, and (b) daunorubicin, as reference compounds.

[7] = molar concentration 2 x 10⁻⁵, cultured 3 days
[8] = 40 mg i.p., hypertransfused rats, 4 days
[9] = hypertransfused rats, 40 mg per animal, after 4 days, Desferral i.p., route not printed for Ex. 4 and Ex. 5, mean ± SD
[10] = oral administration of 40 mg, hypertransfused rats

CCOC(=O)[n+]1cc(CO)c(C=NNc2ncccn2)c(O)c1C [Ex. 5, 1-(N-ethoxycarbonylpyridoxylidenium]-2-[2′-pyrimidyl] hydrazine]
INHIBITION OF GROWTH OF DRUG-RESISTANT STRAIN OF P. falciparum % INHIBITION [1, 7]: 90.3% | effectiveness in the chelation test relative to prior art PIH ([2]; compared with PIH): about sixty times more effective | higher affinity for ferrous than for ferric ions ([2]; ferrous versus ferric): ~30 fold | tolerance ([3]; 100 mg/kg/d by oral or parenteral administration): well tolerated | biochemical tests of hepatic and renal function, complete blood counts, hepatic and renal histology ([3]; after 3 months of continuous treatment): no indications of toxicity | Radioiron Distribution in % Feces [4]: 67.3±2.4% | Radioiron Distribution in % Total excretion [4]: 96.2±3.4% | Radioiron Distribution in % Urine [4]: 28.9±1.0% | Radioiron Distribution in % Blood [4]: 4.2±0.2% | Radioiron Distribution in % Liver [4]: 2.9±0.2% | Radioiron Distribution in % Spleen [4]: 0.06±0.03% | TOTAL EXCRETION OF RADIO-IRON IN RATS % [4]: 96.2± 3.4% | excretion of the radioiron label in the stool [5, 8]: 72% | reduction in hepatocellular (hepatic) radioactivity [5, 8]: 69% | ORGAN DISTRIBUTION AND EXCRETION OF ⁵⁹Fe-FERRITIN (%) BLOOD [5, 9]: 3.1±0.6% | ORGAN DISTRIBUTION AND EXCRETION OF ⁵⁹Fe-FERRITIN (%) LIVER [5, 9]: 63.8± 8.7% | ORGAN DISTRIBUTION AND EXCRETION OF ⁵⁹Fe-FERRITIN (%) STOOL [5, 9]: 27.6±1.3% | ORGAN DISTRIBUTION AND EXCRETION OF ⁵⁹Fe-FERRITIN (%) TOTAL EXCRETION [5, 9]: 28.1±1.3% | ORGAN DISTRIBUTION AND EXCRETION OF ⁵⁹Fe-FERRITIN (%) URINE [5, 9]: 0.5±0% | greater oral chelating efficiency than an identical dose of parenteral DF ([5]; oral 40 mg versus parenteral DF 40 mg): roughly 20% | excretion of radioiron [5, 10]: 28% | reduction in hepatic ⁵⁹Fe [5, 10]: 27%

Cc1ncc(CO)c(C=NNc2cnccn2)c1O [Ex. 6, 1-[2′-pyrazyl]-2-[pyridoxylidene] hydrazine]
Inhibition of Ribonucleoside Diphosphate Reductase (RdR) % ([6]; dose 1 x 10⁻⁵ M): 64% | Inhibition of Ribonucleoside Diphosphate Reductase (RdR) % ([6]; dose 10 x 10⁻⁵ M): 81% | Inhibition of Ribonucleoside Diphosphate Reductase (RdR) % ([6]; dose 100 x 10⁻⁵ M): 83%

Cc1ncc(CO)c(C=NNc2ccccn2)c1O.O=S(=O)([O-])[O-].[Cu+2] [Ex. 7]
INHIBITION OF GROWTH OF DRUG-RESISTANT STRAIN OF P. falciparum % INHIBITION ([1]; molar concentration 1 x 10⁻¹², after 2 hours of exposure): 100 ^(**) %

Cc1ncc(CO)c(C=NNC(=O)c2cc[n+](C)cc2)c1O.[I-] [Ex. A, 1-[pyridoxylidene]-2-[N-methylisonicotinoylium] hydrazine iodide, reference compound]
INHIBITION OF GROWTH OF DRUG-RESISTANT STRAIN OF P. falciparum % INHIBITION [1, 7]: 16.6% | Radioiron Distribution in % Feces [4]: 22.7±1.1% | Radioiron Distribution in % Total excretion [4]: 26.4±1.3% | Radioiron Distribution in % Urine [4]: 3.7±0.2% | Radioiron Distribution in % Blood [4]: 33.3±2.1% | Radioiron Distribution in % Liver [4]: 12.8±0.2% | Radioiron Distribution in % Spleen [4]: 0.56±0.02% | TOTAL EXCRETION OF RADIO-IRON IN RATS % [4]: 26.4± 1.3%

NC(=O)NO [Hydroxyurea, reference compound]
Inhibition of Ribonucleoside Diphosphate Reductase (RdR) % ([6]; dose 1 x 10⁻⁵ M): 15% | Inhibition of Ribonucleoside Diphosphate Reductase (RdR) % ([6]; dose 10 x 10⁻⁵ M): 37% | Inhibition of Ribonucleoside Diphosphate Reductase (RdR) % ([6]; dose 100 x 10⁻⁵ M): 73%

bleomycin [reference compound]
Inhibition of Lewis Carcinoma Metastases % (Lewis lung carcinoma): 48% | Inhibition of Lewis Carcinoma Primary Tumor % (Lewis lung carcinoma): 24%
